These results are taken from PubChem BioAssay AID602375 (Sanford-Burnham Center for Chemical Genomics, 2012).

Calls of active or inactive are those of the source. No rule for the calls is given here.

This assay concerns S. cerevisiae tim23-1 mutant growth, luminescence. In words: tim23-1 mutant yeast growth inhibitors, SAR follow-up, luminescence, S. cerevisiae (AID 602375).
Consider `Cc1nc2scc(C)n2c(=O)c1S(=O)(=O)Nc1ccc(OC(F)(F)F)cc1`, for which the IC50 is 16.5 µM.

For `N#C/C(=C\c1ccc(Cl)cc1)C(=O)Nc1cccnc1`, the IC50 is 16 µM. In the case of `COc1ccc2c(C)cc(SCc3cc(=O)n4cc(C)ccc4n3)nc2c1`, the IC50 is > 99 µM (inactive).

For `O=C(NN=C/C=C\c1ccco1)c1cccs1`, the IC50 is 6.87 µM. The same measure for `Cc1ccc(-c2cc(NC(=O)c3c(C)noc3C)nc(-c3ccccc3)c2)cc1`: > 99 µM (inactive). Take `N/C(=N\OC(=O)c1ccc2ncsc2c1)c1ccc(Cl)cc1Cl`: the IC50 is 1.48 µM. On to `N/C(=N\OC(=O)c1ccc2ccccc2c1)c1ccc(I)cc1`, for which the IC50 is > 99 µM (inactive).

As for `CC(=O)c1ccc(NS(=O)(=O)c2c(C)nc3scc(C)n3c2=O)cc1`, the IC50 was 15.9 µM. The value for `N/C(=N\OC(=O)c1ccc(Cl)cc1)c1ccc(Cl)cc1` was 3.02 µM. As to `O=C1OC(c2ccccc2)=N/C1=C\C=C\c1ccco1`, the IC50 was 2.44 µM. On to `CC1(C)C=Cc2cc(/C(N)=N/OC(=O)c3ccccc3)ccc2O1`, for which the IC50 was 0.617 µM. Turning to `COc1ccc(/C(N)=N/OC(=O)c2ccc(C(F)(F)F)cc2)c(OC)c1`, the IC50 was > 99 µM (inactive).

Turning to `CCN1CCc2nc3sc(C(=O)Nc4cc(Cl)ccc4OC)c(N)c3cc2C1`, the IC50 was > 99 µM (inactive). For the compound `CCN(C(=O)c1cccc2ncccc12)c1c(N)n(Cc2ccccc2)c(=O)[nH]c1=O`, the IC50 is > 99 µM (inactive). As for `Cc1ccc(S(=O)(=O)Cc2cc(=O)n3ccccc3n2)nc1`, the IC50 was > 99 µM (inactive). The same measure for `Cc1cc2cc(CNC(=O)c3ccc(F)c(F)c3)ccc2[nH]1`: > 99 µM (inactive). Consider `CN1CCN(c2nc(-c3cccnc3)nc3ccccc23)CC1`, for which the IC50 was > 99 µM (inactive). Take `CCn1c(N2CCN(S(=O)(=O)c3ccc(OC)cc3)CC2)nc2ccccc21`: the IC50 is 3.69 µM.

`N/C(=N\OC(=O)c1ccc(Cl)cc1)c1ccc2nonc2c1`: the IC50 was > 99 µM (inactive). The same measure for `CCN(CC)S(=O)(=O)c1ccc(C(=O)OCn2nnc3ccccc3c2=O)cc1`: 13 µM. The same measure for `O=C(CSCc1ccccc1)Nc1cc(S(=O)(=O)N2CCOCC2)ccc1Oc1ccccc1`: > 99 µM (inactive). The same measure for `Cc1nc2scc(C)n2c(=O)c1S(=O)(=O)Nc1ccc(Cl)c(C(F)(F)F)c1`: > 99 µM (inactive); for `Cn1c(SCc2cccc(/C(N)=N/OC(=O)c3ccc(Cl)cc3)c2)nnc1C(F)(F)F`: 2.37 µM.

As for `O=C(Nc1ccc2nc(-c3ccc(Br)o3)[nH]c2c1)c1cccs1`, the IC50 was 0.882 µM. As to `N#Cc1ccc(C2N=C(c3ccccc3)NO2)cc1` (stereo unspecified), the IC50 was > 99 µM (inactive). The same measure for `Cc1nc2scc(C)n2c(=O)c1S(=O)(=O)Nc1ccc(Oc2ccc(Cl)cc2)cc1`: > 99 µM (inactive); for `N/C(Cc1ccc(Cl)cc1)=N\OC(=O)COc1ccccc1Cl`: 4.54 µM; for `COc1ccc(C2N=C(c3ccccc3C)NO2)cc1O` (stereo unspecified): > 99 µM (inactive). The value for `Cc1ccc2nc(CS(=O)(=O)c3ncccc3Cl)cc(=O)n2c1` was > 99 µM (inactive); that for `N/C(=N\OC(=O)c1ccc(Cl)cc1)c1ccc(Oc2ccc(C(F)(F)F)cn2)cc1` was 0.57 µM. Take `CCOc1cc2ccccc2cc1C(=O)O/N=C(\N)c1ccc(Cl)cc1`: the IC50 is 1.57 µM. Take `Cc1ccc(/C(N)=N/OC(=O)c2ccccc2)cc1F`: the IC50 was 1.52 µM. As for `Cc1ccc(-c2nc3ccc(NC(=O)c4cccs4)cc3[nH]2)o1`, the IC50 is 1.42 µM.

Turning to `O=C(Nc1ccn[nH]1)c1cccc(OCc2cccnc2)c1`, the IC50 was > 99 µM (inactive). Regarding `CC(=O)Nc1ccc(C(C(F)(F)F)(C(F)(F)F)C(F)(F)F)cc1`, the IC50 was > 99 µM (inactive). `N#Cc1c(-c2ccccc2)cc(-c2ccc(O)cc2)nc1N`: the IC50 is 2.9 µM.

Consider `Cc1nn(Cc2cccc(C(=O)O/N=C(\N)c3ccc(Cl)cc3)c2)c(C)c1Br`, for which the IC50 is 2.65 µM.

Turning to `N=c1c2c(-c3ccccc3)c(-c3ccccc3)n(Cc3ccco3)c2ncn1CCCN1CCOCC1`, the IC50 was > 99 µM (inactive). As to `O=c1cc(CSc2ccc(C(F)(F)F)cn2)nc2ccc(Br)cn12`, the IC50 was > 99 µM (inactive).

On to `N#Cc1c(-c2ccc([N+](=O)[O-])cc2)cc(-c2ccccc2)nc1N`, for which the IC50 was > 99 µM (inactive). The same measure for `N/C(=N\OC(=O)c1ccc2ncsc2c1)c1ccccc1`: 14.8 µM; for `O=C(CSc1cccc[n+]1[O-])Nc1ccccc1Oc1ccccc1`: 1.06 µM. The value for `CCCN(C(=O)c1ccc([N+](=O)[O-])c(C)c1)c1c(N)n(Cc2ccccc2)c(=O)[nH]c1=O` was 0.987 µM; that for `COc1ccc(Cl)cc1NS(=O)(=O)c1c(C)nc2scc(C)n2c1=O` was > 99 µM (inactive); that for `N/C(Cc1cccc2ccccc12)=N\OC(=O)COc1ccc(Cl)cc1Cl` was 19.1 µM. The same measure for `Cc1nc2scc(C)n2c(=O)c1S(=O)(=O)Nc1cccc(O)c1`: > 99 µM (inactive); for `O=C(Nc1ccc2nc(-c3ccco3)[nH]c2c1)c1cccs1`: 0.459 µM. On to `CC(=O)c1ccc2[nH]c3c(c2c1)CCCC3=O`, for which the IC50 is > 99 µM (inactive). The same measure for `CN(C(=O)c1cccc(S(C)(=O)=O)c1)c1c(N)n(Cc2ccccc2)c(=O)[nH]c1=O`: > 99 µM (inactive). The same measure for `Cc1nc2scc(C)n2c(=O)c1S(=O)(=O)Nc1ccc(F)cc1Cl`: 52.7 µM; for `O=C(Nc1ccn[nH]1)c1ccc(Br)cc1Cl`: > 99 µM (inactive). The value for `O=C(Nc1ccc(-c2cn3ccccc3n2)cc1)c1cccs1` was 0.897 µM; that for `Cc1ccc2nc(N3CCN(S(C)(=O)=O)CC3)[nH]c2c1` was > 99 µM (inactive); that for `COc1ccc([N+](=O)[O-])cc1NS(=O)(=O)c1c(C)nc2scc(C)n2c1=O` was > 99 µM (inactive).

Take `Cc1ccc2nc(CSc3ccc(S(=O)(=O)N4CCCC4)cn3)cc(=O)n2c1`: the IC50 was > 99 µM (inactive).

Turning to `O=C(O)c1cccnc1SCc1cc(=O)n2cc(Br)ccc2n1`, the IC50 was > 99 µM (inactive).

On to `COc1ccc(/C=C/C(=O)Nc2ccc3c(c2)CCC3)cc1OC`, for which the IC50 is 1.72 µM. The same measure for `Cc1ccc2nc(NC(=O)C3CCCN3S(C)(=O)=O)sc2c1` (stereo unspecified): 91.9 µM. The same measure for `C(/C=C/c1ccccc1)=NNc1nc2ccccc2[nH]1`: 11.2 µM.

Consider `Cc1nc2scc(C)n2c(=O)c1S(=O)(=O)Nc1ccc(N2CCOCC2)c(Cl)c1`, for which the IC50 is > 99 µM (inactive).

`O=c1cc(C(F)F)oc2c1ccc1ccccc12`: the IC50 is > 99 µM (inactive).

As to `Cc1nc2scc(C)n2c(=O)c1S(=O)(=O)Nc1ccc(N2CCN(S(C)(=O)=O)CC2)cc1`, the IC50 is > 99 µM (inactive). With `Cc1nc2scc(C)n2c(=O)c1S(=O)(=O)Nc1cc(C(F)(F)F)ccc1Cl`, the IC50 was > 99 µM (inactive). Consider `CC(C)Cn1cnc2c(c(-c3ccccc3)c(-c3ccccc3)n2Cc2ccco2)c1=N`, for which the IC50 was 21.6 µM.

Regarding `O=C(O/N=C(/c1ccc(Br)cc1)N1CCOCC1)c1ccccc1`, the half-maximal inhibitory concentration (IC50) is 0.787 µM. On to `O=S(=O)(Nc1ccc(-c2cn3c(n2)SCC3)cc1)c1cccnc1`, for which the IC50 is > 99 µM (inactive). The value for `Cc1c2c(n(Cc3ccco3)c1C)N=CN1CCS(=O)(=O)N=C21` was > 99 µM (inactive); that for `O=C(Nc1nc2c(s1)Cc1ccccc1-2)c1ccc(Br)s1` was > 99 µM (inactive).

As for `CN1CCc2nc3sc(C(=O)C45CC6CC(CC(C6)C4)C5)c(N)c3cc2C1`, the IC50 is 18.1 µM. The value for `O=c1cc(CSc2ccc(S(=O)(=O)N3CCCCC3)cn2)nc2ccc(Br)cn12` was 70.2 µM; that for `CCOc1ccc2nc(N3C(=O)CNC3=S)sc2c1` was > 99 µM (inactive). For the compound `Cc1nc2scc(C)n2c(=O)c1S(=O)(=O)Nc1ccccc1`, the IC50 is > 99 µM (inactive).

Consider `Cc1ccc2nc(CSc3nc(C)c(C)c(C)c3C(N)=O)cc(=O)n2c1`, for which the half-inhibitory concentration (IC50) was 29.6 µM.

For the compound `N/C(=N\OC(=O)c1ccc(Cl)cc1)c1ccc(-c2csnn2)cc1`, the IC50 is > 99 µM (inactive). In the case of `Cc1nc2scc(C)n2c(=O)c1S(=O)(=O)Nc1ccc(N2CCOCC2)cc1`, the IC50 was 16.3 µM.

Regarding `Cc1cc(OCC(=O)O/N=C(\N)Cc2ccc(Cl)cc2)ccc1Br`, the IC50 was 3.69 µM.

For the compound `Cc1cccn2c(=O)cc(CSc3cc(C(=O)NC4CC4)c4ccccc4n3)nc12`, the IC50 was > 99 µM (inactive). For `Cc1csc(NC(=O)c2sc3nc4c(cc3c2N)CN(C)CC4)n1`, the IC50 was > 99 µM (inactive). The value for `CC(C)(C)c1csc(NC(=O)c2ccc(Cl)s2)n1` was 17.3 µM; that for `O=c1cc(CSc2ccccn2)nc2ccccn12` was > 99 µM (inactive); that for `O=C(N/N=C/C(Cl)=C\c1ccccc1)c1cccs1` was 2.3 µM. The same measure for `Cc1ccc(-c2nn(-c3ccccc3)cc2NC(=O)CCl)cc1`: 1.75 µM. The value for `CCOc1ccc(C(=O)O/N=C(\N)c2ccc(OC)cc2)cc1OCC` was 1.48 µM; that for `Cc1nc(SCc2cc(=O)n3cc(Br)ccc3n2)c(C#N)c(C)c1C` was > 99 µM (inactive). For `Cc1nc2scc(C)n2c(=O)c1S(=O)(=O)Nc1ccc(N2CCN(C(=O)C(C)C)CC2)cc1`, the IC50 was > 99 µM (inactive). Take `O=C(Nc1nc2ccccc2s1)C1CCCN1S(=O)(=O)c1ccc(Cl)cc1` (stereo unspecified): the IC50 is 12 µM.

The IC50 is the concentration needed to halve the response being measured.
